Key:
[1] = target: human adenosine A1 receptor (Homo sapiens (Human), UniProt P30542); test: Adenosine receptor inhibition binding assay, [3H]DPCPX, A1 receptor membranes; conditions: 1 nM [3H]DPCPX, 25° C., 1 h, Ki from IC50 by Cheng-Prusoff; for Ki: read-out: A1 pKi (converted)
Method: (§1) Inhibition binding assays were performed using 0.2 µg of membranes prepared from HEK293 cells infected with BacMam human adenosine A2A receptor or 1.4 µg of membranes prepared from HEK293 cells infected with BacMam human adenosine A1 receptor. Membranes were incubated in 50 mM Tris-HCl (HEK293-hA2A; pH 7.4) or 50 mM Tris-HCl, 100 mM NaCl, 10 mM MgCl2 (CHO-hA1; pH 7.4) in the presence of varying concentrations of test compound and 1 nM [^3H]ZM241385 (HEK293-hA2A) or [^3H]DPCPX (CHO-hA1) at 25° C. for 1 h. The assay was then terminated by rapid filtration onto GF/B grade Unifilter plates using a TomTec cell harvester, followed by 5 × 0.5 ml washes with ddH2O. Nonspecific binding was defined in the presence of 1 µM CGS 15943 (HEK293-hA2A) or 1 µM DPCPX (CHO-hA1). Bound radioactivity was determined by liquid scintillation counting and inhibition curves were analysed using a four-parameter logistic equation. IC50 values were converted to Ki values with the Cheng-Prusoff equation using a KD value derived from saturation binding studies.

[2] = target: human adenosine A2A receptor (Homo sapiens (Human), UniProt P29274); test: Adenosine receptor inhibition binding assay, [3H]ZM241385, HEK293 A2A receptor membranes; conditions: 1 nM [3H]ZM241385, HEK293-hA2A membranes, 25° C., 1 h, Ki from IC50 by Cheng-Prusoff; for Ki: read-out: A2A pKi (converted)
Method: as §1

human adenosine A1 receptor, sequence (P30542 whole entry): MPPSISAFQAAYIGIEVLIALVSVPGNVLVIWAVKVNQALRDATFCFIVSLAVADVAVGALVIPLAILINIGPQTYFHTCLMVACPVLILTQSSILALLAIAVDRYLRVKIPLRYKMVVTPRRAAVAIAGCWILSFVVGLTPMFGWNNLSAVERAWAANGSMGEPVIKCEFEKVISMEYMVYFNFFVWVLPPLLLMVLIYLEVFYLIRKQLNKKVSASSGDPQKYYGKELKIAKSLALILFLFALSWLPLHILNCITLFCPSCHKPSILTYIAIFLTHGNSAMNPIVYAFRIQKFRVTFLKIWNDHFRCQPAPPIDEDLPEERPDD
human adenosine A2A receptor, sequence (P29274 whole entry): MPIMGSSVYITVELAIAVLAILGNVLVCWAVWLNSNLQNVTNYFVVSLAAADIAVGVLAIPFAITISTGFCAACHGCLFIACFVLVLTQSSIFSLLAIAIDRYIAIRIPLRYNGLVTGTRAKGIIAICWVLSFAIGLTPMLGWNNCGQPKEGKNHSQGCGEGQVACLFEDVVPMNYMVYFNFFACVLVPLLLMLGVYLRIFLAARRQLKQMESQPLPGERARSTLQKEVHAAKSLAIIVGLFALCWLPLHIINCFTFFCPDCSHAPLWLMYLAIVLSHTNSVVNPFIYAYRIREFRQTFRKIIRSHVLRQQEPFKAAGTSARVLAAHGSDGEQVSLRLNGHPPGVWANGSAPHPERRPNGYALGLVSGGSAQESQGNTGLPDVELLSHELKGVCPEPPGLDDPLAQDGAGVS

`Cc1cc(-c2c(-c3ccc(F)cc3)nc(N)n3c(=O)n(Cc4nc(C)oc4C)nc23)cc(C)n1` [Example 1-32, 5-amino-2-[(2,5-dimethyloxazol-4-yl)methyl]-8-(2,6-dimethyl-4-pyridyl)-7-(4-fluorophenyl)-[1,2,4]triazolo[4,3-c]pyrimidin-3-one] was tested, and the “A1 pKi” value [1] was 7.0 and the “A2A pKi” value [2] was 9.5.
In the case of `COc1cccc(-c2nn(Cc3ccccc3)cc2Cn2nc3c(-c4cc(C)nc(C)c4)c(-c4ccccc4)nc(N)n3c2=O)c1` [Example 1-33, 5-amino-2-[[1-benzyl-3-(3-methoxyphenyl)pyrazol-4-yl]methyl]-8-(2,6-dimethyl-4-pyridyl)-7-phenyl-[1,2,4]triazolo[4,3-c]pyrimidin-3-one], the “A1 pKi” value [1] is reported as 7.1 and the “A2A pKi” value [2] is reported as 8.1.
`Cc1ocnc1Cn1nc2c(-c3cc(C)[n+]([O-])c(C)c3)c(-c3ccccc3)nc(N)n2c1=O` [Example 1-34, 5-amino-8-(2,6-dimethyl-1-oxido-pyridin-1-ium-4-yl)-2-[(5-methyloxazol-4-yl)methyl]-7-phenyl-[1,2,4]triazolo[4,3-c]pyrimidin-3-one] was tested, and the “A1 pKi” value [1] was 7.5 and the “A2A pKi” value [2] was 9.2.
`Cc1cc(-c2c(-c3ccccc3)nc(N)n3c(=O)n(Cc4ncoc4C)nc23)cc(CO)n1` [Example 1-39, 5-amino-8-[2-(hydroxymethyl)-6-methyl-4-pyridyl]-2-[(5-methyloxazol-4-yl)methyl]-7-phenyl-[1,2,4]triazolo[4,3-c]pyrimidin-3-one] was tested, and the “A1 pKi” value [1] was 6.8 and the “A2A pKi” value [2] was 9.5.
In the case of `Cc1cc(-c2c(-c3ccccc3)nc(N)n3c(=O)n(Cc4ncco4)nc23)cc(CO)n1` [Example 1-40, 5-amino-8-[2-(hydroxymethyl)-6-methyl-4-pyridyl]-2-(oxazol-2-ylmethyl)-7-phenyl-[1,2,4]triazolo[4,3-c]pyrimidin-3-one], the “A1 pKi” value [1] is reported as 6.9 and the “A2A pKi” value [2] is reported as 8.8.
`Cc1cc(-c2c(-c3ccccc3)nc(N)n3c(=O)n(Cc4nccn4C)nc23)cc(CO)n1` [Example 1-41, 5-amino-8-[2-(hydroxymethyl)-6-methyl-4-pyridyl]-2-[(1-methylimidazol-2-yl)methyl]-7-phenyl-[1,2,4]triazolo[4,3-c]pyrimidin-3-one] was tested, and the “A1 pKi” value [1] was 7.2 and the “A2A pKi” value [2] was 9.1.
`Cc1cc(-c2c(-c3ccccc3)nc(N)n3c(=O)n(Cc4cocn4)nc23)cc(CO)n1` [Example 1-42, 5-amino-8-[2-(hydroxymethyl)-6-methyl-4-pyridyl]-2-(oxazol-4-ylmethyl)-7-phenyl-[1,2,4]triazolo[4,3-c]pyrimidin-3-one] was tested, and the “A1 pKi” value [1] was 6.7 and the “A2A pKi” value [2] was 8.5.
For `Cc1cc(-c2c(-c3ccccc3)nc(N)n3c(=O)n(Cc4c(C)ncn4C)nc23)cc(CO)n1` [Example 1-44, 5-amino-2-[(3,5-dimethylimidazol-4-yl)methyl]-8-[2-(hydroxymethyl)-6-methyl-4-pyridyl]-7-phenyl-[1,2,4]triazolo[4,3-c]pyrimidin-3-one], the “A1 pKi” value [1] was 6.8 and the “A2A pKi” value [2] was 8.4.
With `Cc1cc(-c2c(-c3ccccc3)nc(N)n3c(=O)n(Cc4ccn(C)n4)nc23)cc(CO)n1` [Example 1-45, 5-amino-8-[2-(hydroxymethyl)-6-methyl-4-pyridyl]-2-[(1-methylpyrazol-3-yl)methyl]-7-phenyl-[1,2,4]triazolo[4,3-c]pyrimidin-3-one] the “A1 pKi” value [1] was 7.2 and the “A2A pKi” value [2] was 9.3.
`[2H]c1c([2H])c([2H])c(-c2nc(N)n3c(=O)n(Cc4ncoc4C)nc3c2-c2cc(C)nc(CO)c2)c([2H])c1[2H]` [Example 1-47, 5-amino-8-[2-(hydroxymethyl)-6-methyl-4-pyridyl]-2-[(5-methyloxazol-4-yl)methyl]-7-(2,3,4,5,6-pentadeuteriophenyl)-[1,2,4]triazolo[4,3-c]pyrimidin-3-one] gave a Ki [1] of 158 nM and a Ki [2] of 0.316 nM.
`[2H]c1c([2H])c([2H])c(-c2nc(N)n3c(=O)n(Cc4nccn4C)nc3c2-c2cc(C)nc(CO)c2)c([2H])c1[2H]` [Example 1-48, 5-amino-8-[2-(hydroxymethyl)-6-methyl-4-pyridyl]-2-[(1-methylimidazol-2-yl)methyl]-7-(2,3,4,5,6-pentadeuteriophenyl)-[1,2,4]triazolo[4,3-c]pyrimidin-3-one] gave a Ki [1] of 158 nM and a Ki [2] of 1.26 nM.
For `[2H]c1c([2H])c([2H])c(-c2nc(N)n3c(=O)n(Cc4cocn4)nc3c2-c2cc(C)nc(CO)c2)c([2H])c1[2H]` [Example 1-49, 5-amino-8-[2-(hydroxymethyl)-6-methyl-4-pyridyl]-2-(oxazol-4-ylmethyl)-7-(2,3,4,5,6-pentadeuteriophenyl)-[1,2,4]triazolo[4,3-c]pyrimidin-3-one], the Ki [1] was 316 nM and the Ki [2] was 1.58 nM.
With `Cc1ocnc1Cn1nc2c(-c3cc(Cl)nc(CO)c3)c(-c3ccccc3)nc(N)n2c1=O` [Example 1-54, 5-amino-8-[2-chloro-6-(hydroxymethyl)-4-pyridyl]-2-[(5-methyloxazol-4-yl)methyl]-7-phenyl-[1,2,4]triazolo[4,3-c]pyrimidin-3-one] the “A1 pKi” value [1] was 7.2 and the “A2A pKi” value [2] was 9.7.
`[2H]c1c([2H])c([2H])c(-c2nc(N)n3c(=O)n(Cc4nccn4C)nc3c2-c2cc(Cl)nc(CO)c2)c([2H])c1[2H]` [Example 1-56, 5-amino-8-[2-chloro-6-(hydroxymethyl)-4-pyridyl]-2-[(1-methylimidazol-2-yl)methyl]-7-(2,3,4,5,6-pentadeuteriophenyl)-[1,2,4]triazolo[4,3-c]pyrimidin-3-one] was tested, and the Ki [1] was 5.01 nM and the Ki [2] was 0.158 nM.
`[2H]c1c([2H])c([2H])c(-c2nc(N)n3c(=O)n(Cc4ncoc4C)nc3c2-c2cc(Cl)nc(CO)c2)c([2H])c1[2H]` [Example 1-57, 5-amino-8-[2-chloro-6-(hydroxymethyl)-4-pyridyl]-2-[(5-methyloxazol-4-yl)methyl]-7-(2,3,4,5,6-pentadeuteriophenyl)-[1,2,4]triazolo[4,3-c]pyrimidin-3-one] gave a Ki [1] of 126 nM and a Ki [2] of 0.1 nM.
For `Cc1ocnc1Cn1nc2c(-c3cc(Cl)nc(CO)c3)c(-c3ccc(F)cc3)nc(N)n2c1=O` [Example 1-59, 5-amino-8-[2-chloro-6-(hydroxymethyl)-4-pyridyl]-7-(4-fluorophenyl)-2-[(5-methyloxazol-4-yl)methyl]-[1,2,4]triazolo[4,3-c]pyrimidin-3-one], the “A1 pKi” value [1] was 6.8 and the “A2A pKi” value [2] was 9.9.
In the case of `[2H]c1c([2H])c([2H])c(-c2nc(N)n3c(=O)n(Cc4nccn4C)nc3c2-c2cc(CO)nc(OC)c2)c([2H])c1[2H]` [Example 1-62, 5-amino-8-[2-(hydroxymethyl)-6-methoxy-4-pyridyl]-2-[(1-methylimidazol-2-yl)methyl]-7-(2,3,4,5,6-pentadeuteriophenyl)-[1,2,4]triazolo[4,3-c]pyrimidin-3-one], the Ki [1] is reported as 126 nM and the Ki [2] is reported as 0.251 nM.
In the case of `[2H]c1c([2H])c([2H])c(-c2nc(N)n3c(=O)n(Cc4ncoc4C)nc3c2-c2cc(CO)nc(OC)c2)c([2H])c1[2H]` [Example 1-63, 5-amino-8-[2-(hydroxymethyl)-6-methoxy-4-pyridyl]-2-[(5-methyloxazol-4-yl)methyl]-7-(2,3,4,5,6-pentadeuteriophenyl)-[1,2,4]triazolo[4,3-c]pyrimidin-3-one], the Ki [1] is reported as 316 nM and the Ki [2] is reported as 0.0794 nM.
For `COc1cc(-c2c(-c3ccc(F)cc3)nc(N)n3c(=O)n(Cc4nccn4C)nc23)cc(CO)n1` [Example 1-65, 5-amino-7-(4-fluorophenyl)-8-[2-(hydroxymethyl)-6-methoxy-4-pyridyl]-2-[(1-methylimidazol-2-yl)methyl]-[1,2,4]triazolo[4,3-c]pyrimidin-3-one], the “A1 pKi” value [1] was 7.1 and the “A2A pKi” value [2] was 10.0.

— patent US20230271964A1, “5-AMINO-8-(4-PYRIDYL)-[1,2,4]TRIAZOLO[4,3-C]PYRIMIDIN-3-ONE COMPOUNDS FOR USE AGAINST CANCER” (ASTRAZENECA AB, priority 2020, published 2023)
